From US20080166408A1, “Oral Dosage Form Comprising Rosiglitazone” (priority 2005, published 2008)

Experiment: pH dependent solubility of Compound A
Assay type: physicochemical
Conditions: acidic conditions of the stomach (around pH 2) versus near neutral conditions of the lower intestine (around pH 7); Compound A and its salts or solvates, in particular the maleate salt

In the case of `CN(CCOc1ccc(CC2SC(=O)NC2=O)cc1)c1ccccn1` (stereo not shown) [Compound A, 5-[4-[2-(N-methyl-N-(2 pyridyl)amino)ethoxy]benzyl]thiazolidine-2,4-dione], the pH dependent solubility is reported as “more soluble in the acidic conditions of the stomach (around pH 2) than in the near neutral conditions of the lower intestine (around pH 7)”.
